Source: ChEMBL document CHEMBL5604062, “ASAP - ZIKV NS2B-NS3 protease fluorescence dose response” (2024)
Where “and” joins values, the source holds several entries; their conditions need not be identical. Equal entries are not always repeated.

Target: Nonstructural protein 3 (Zika virus, UniProt A0A024AXB9)
Assay: Functional biochemical assay to identify treatments for viral infectious disease that targets Zika NS2B-NS3 protease. Utilizing a direct enzyme activity measurement method, reading the fluorescence intensity is used to characterize the relative potency of inhibitors as IC50.
Set-up: species or system PRVABC59

Chain of Nonstructural protein 3 (A0A024AXB9 whole entry): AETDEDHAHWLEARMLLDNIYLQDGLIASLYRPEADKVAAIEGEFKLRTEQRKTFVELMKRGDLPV

Row | SMILES | IC50
1 | CN1Cc2ccc(NC(=O)c3cc(Cl)cc4[nH]ncc34)cc2C1 | 0.832 µM
2 | CCn1c(=O)c(N2C[C@@H]3CCO[C@]3(COC)C2)nc2ccccc21 | > 99.5 µM
3 | Cc1cc(C)c([C@@H](CC(=O)Nc2cccc(CN)c2)NC(=O)OCc2ccccc2)cc1C | 5.67 µM and 6.27 µM
4 | Cc1cc(C)c([C@@H](NC(=O)OCc2ccccc2)C(=O)Nc2cccc(CN)c2)c(C)c1 | > 99.5 µM
5 | O=C(NC1CCOCC1)[C@H](Nc1ccc2c(c1)CNC2)c1cc(Cl)cc2[nH]ncc12 | 0.03 µM and 0.021 µM
6 | O=C(Nc1ccc2c(c1)CNC2)c1ccc2cc[nH]c2c1 | > 25 µM
7 | CNc1cc(COc2cccnc2F)nc(N2CCNCC2)n1 | > 99.5 µM
8 | NCc1cccc(NC(=O)[C@@H](NC(=O)OCc2ccccc2)c2ccc(-c3ccc4scnc4c3)cc2)c1 | 12.3 µM
9 | CC(C)[C@H](NC(=O)[C@@H]1CCCN1C(=O)OCc1ccccc1)P(=O)(Oc1ccc(F)cc1)Oc1ccc(F)cc1 | > 99.5 µM
10 | Cc1c(C(=O)Nc2cc(C(=O)N3CC[C@H](CO)C3)ccn2)cc(C2CC2)n1C | > 25 µM
11 | O=c1c(N2CC[C@H](CO)C2)nccn1C1CC1 | > 99.5 µM
12 | CC(C)(C)NC(=O)[C@H](Nc1ccc2c(c1)CNC2)c1cc(Cl)cc(C2CC2)c1 | 4.69 µM
13 | O=C(Cn1sc2ccccc2c1=O)Nc1cccc(OCc2cn(CC(=O)Nc3ccccc3Oc3ccccc3)nn2)c1 | 2.06 µM
14 | O=C1Cc2ccc(NC(=O)c3cc(F)cc4[nH]ncc34)cc2N1 | > 25 µM
15 | CCC1CN(C(=O)Cn2ccnc(N3CC[C@@H](CO)C3)c2=O)C1 | > 99.5 µM
16 | Cn1cc(N2CCN(Cc3c[nH]c4ccccc34)CC2)cn1 | > 99.5 µM
17 | COc1ccc(NS(=O)(=O)c2ccc(Cl)cc2C(=O)O)cc1N1CCCC1=O | > 99.5 µM
18 | c1nc(C2CCN(Cc3cc(C4CCOCC4)[nH]n3)CC2)cs1 | > 99.5 µM
19 | O=C(Nc1cc2c(c(C3=CCS(=O)(=O)CC3)c1)CNC2)c1cc(F)cc2[nH]ncc12 | 0.038 µM and 0.03 µM and 0.026 µM
20 | CCn1cc(-c2ccc3ocnc3c2)nc(N2CC[C@@H](CO)C2)c1=O | > 99.5 µM
21 | Cc1cc(C(=O)Nc2cccc(CN)c2)c2c(C)nn(CC(=O)NC(C)C)c2n1 | > 99.5 µM
22 | CCn1c(=O)c(N2C[C@@H]3CS(=O)(=O)C[C@@H]3C2)nc2ccccc21 | > 99.5 µM
23 | NCc1ccc(NC(=O)[C@H]2[C@H]3CCCCC[C@H]3[C@H]2NC(=O)OCc2ccccc2)cc1 | 36.6 µM
24 | Cc1cc(C(=O)N[C@H](CC(=O)Nc2cccc(CN)c2)c2ccc(OCc3ccccc3)c(Br)c2)sn1 | 6.83 µM
25 | CN(C)CCNC(=O)[C@H](NC(=O)OCc1ccccc1)c1ccc(OCc2ccccc2)cc1 | > 99.5 µM
26 | Cc1c(C(=O)Nc2ccc3c(c2)CNCCO3)cc(C2CC2)n1C | > 99.5 µM

Row | SMILES | IC50
27 | NCc1cccc(NC(=O)[C@H](NC(=O)OCc2ccccc2)c2cccc(OCc3ccccn3)c2)c1 | > 99.5 µM
28 | CCn1cc(-c2ccncc2F)nc(N2CC[C@@H](CO)C2)c1=O | > 99.5 µM
29 | CN1CC=C(c2cccc([C@@H](NC(=O)OCc3ccccc3)C(=O)Nc3cccc(CN)c3)c2)CC1 | 67.5 µM
30 | Cc1cc(C=O)c(O)c(C(=O)N2CC[C@H](CN(C)C)C2)c1 | > 99.5 µM
31 | O=C(Nc1ccc2c(c1)CNC2)c1n[nH]c(=O)c2ccccc12 | 22.4 µM
32 | Cc1ccc(NS(=O)(=O)c2ccc(Oc3ccccc3Cl)cc2)cc1CN | > 99.5 µM
33 | Cc1c(C(=O)Nc2cccc(CN)c2)cc(C2CCC2)n1C | > 99.5 µM
34 | NCc1cccc(NC(=O)[C@H](NS(=O)(=O)C2CCCCC2)c2ccc(OCc3ccccc3)cc2)c1 | 64.8 µM
35 | NCCc1ccc(NC(=O)c2cc(Cl)cc3[nH]ncc23)cc1 | 3.78 µM
36 | NCc1cccc(NC(=O)c2cc(Cl)cc(-n3cccc3)c2)c1 | 2.7 µM
37 | O=C(Nc1ccc2c(c1)CNC2)c1cc(Cl)cc2c1cnn2C[C@H]1CCCO1 | 0.136 µM
38 | Cc1csc(N2CCN(Cc3c[nH]c4ccccc34)CC2)n1 | > 99.5 µM
39 | NCc1ccc(I)c(NC(=O)c2cc(Cl)cc(NC(=O)OCc3ccccc3)c2)c1 | 50.6 µM
40 | O=C(Nc1cc(-c2cccnc2)ccn1)c1csc(C[C@H]2CCNC2)n1 | > 25 µM
41 | CC(C)(C)OC(=O)NCc1cccc(NC(=O)[C@@H](NC(=O)OCc2ccccc2)c2ccc(O)cc2)c1 | > 99.5 µM
42 | N[C@H]1CC[C@@H](NC(=O)[C@@H](NC(=O)OCc2ccccc2)c2ccc(OCc3ccccc3)cc2)C1 | > 99.5 µM
43 | CC[C@H](Cc1nnn[nH]1)c1ccc(NC(=O)c2cc(Cl)cc(-n3cccc3)c2)cc1 | 52.9 µM
44 | O=C(Nc1ccc2c(c1)CN[C@H]2CCO)c1cc(F)cc2[nH]ncc12 | 0.116 µM
45 | CC(C)(C)c1nc2c(C(=O)Nc3ccc4c(c3)CNC4)cc(Br)cc2[nH]1 | 0.328 µM
46 | O=C(O)c1cc(Cl)ccc1NS(=O)(=O)c1ccc(-c2ccc(F)cc2)cc1 | 32.9 µM
47 | N#Cc1cc(CN)cc([C@H]2C[C@@H]2c2cc(Cl)cc(NC(=O)OCc3ccccc3)c2)c1 | > 99.5 µM
48 | [O-][S@@+](Cc1ncccn1)c1ncccc1Br | > 99.5 µM
49 | O=C(Cn1ccnc(N2CC[C@H](CO)C2)c1=O)Nc1ccccc1 | > 99.5 µM
50 | O=C1CCCc2cc(C(=O)Nc3ccc4c(c3)CNC4)ccc2N1 | > 25 µM
51 | O=C(Nc1ccc2c(c1)CCCN2)c1cc(Cl)cc2[nH]ncc12 | > 99.5 µM
52 | N#Cc1cccc2[nH]cc(CN3CCC(c4cscn4)CC3)c12 | > 99.5 µM

Row | SMILES | IC50
53 | CN1CC[C@H](C2CCN(S(=O)(=O)c3cc(F)cc(C(=O)O)c3)CC2)C1 | > 99.5 µM
54 | O=C(Nc1ccc(-c2nnn[nH]2)cc1)c1cc(Cl)cc(C2CC2)c1 | > 99.5 µM
55 | C[C@H]1CN(C)C[C@H](C(=O)Nc2cccc(CN)c2)O1 | > 99.5 µM
56 | O=C(Nc1cc(-c2cccnc2)ccn1)c1cnn2c1CCC2 | > 25 µM
57 | O=C(Nc1cc(Cl)cc(S(=O)(=O)Nc2cccc(-c3nn[nH]n3)c2)c1)OCc1ccccc1 | > 99.5 µM
58 | O=C(Nc1cc(Cl)cc(C(=O)Nc2cc(-c3nnn[nH]3)ccc2F)c1)OCc1ccccc1 | 41.5 µM
59 | CSc1cc(F)c(C(=O)Nc2cccc(CN)c2)cc1NC(=O)OCc1ccccc1 | 83.6 µM
60 | N[C@H]1CCOc2ccc(NC(=O)c3cc(Cl)cc(NC(=O)OCc4ccccc4)c3)cc21 | 10.6 µM
61 | NCc1cccc(NC(=O)[C@H](NC(=O)OCc2ccccc2)C2CCN(C3CCCC3)CC2)c1 | > 99.5 µM
62 | O=C1Cc2c(cccc2C(=O)NC2(c3ccc(O)nc3)CC2)N1 | > 25 µM
63 | O=C(Nc1ccc2c(c1)CNC2)c1cncc(-c2ccccc2)c1 | 14.7 µM
64 | CSCc1nnc(SCc2ccncc2)o1 | > 99.5 µM
65 | Cc1cccc(CNc2ccc(Cl)cc2C(=O)Nc2cccc(CN)c2)n1 | > 99.5 µM
66 | O=C(Nc1ccc2c(c1)CNC2)c1ccc2ncsc2c1 | 0.997 µM
67 | CCn1c(=O)c(N2CC[C@H](CO)C2)nc2ccc(C(=O)NS(C)(=O)=O)cc21 | > 99.5 µM
68 | NCc1ccc(CNC(=O)c2cc(Cl)cc(NC(=O)OCc3ccccc3)c2)c(F)c1 | 32.9 µM
69 | Cc1c(C(=O)Nc2cccc(CN)c2)cc(C2CC2)n1C | > 99.5 µM
70 | N#Cc1cc(Cl)cc(C(=O)Nc2cccc(CN)c2)c1 | 11 µM
71 | O=C(Nc1cc(Cl)cc(C(=O)Nc2nccc([C@H]3CCCCN3)n2)c1)OCc1ccccc1 | > 99.5 µM
72 | COc1n[nH]cc1CN1CCC(c2nc3ccccc3s2)CC1 | > 99.5 µM
73 | O=C(Nc1cc(Cl)cc(C(=O)Nc2ccc3c(c2)C[C@H](F)C3)c1)OCc1ccccc1 | > 99.5 µM
74 | O=C(Nc1cc(Cl)cc(C(=O)Nc2cc(C(=O)O)ccn2)c1)OCc1ccccc1 | > 99.5 µM
75 | O=C(O)c1cc(Cl)ccc1NS(=O)(=O)c1ccc(Br)cc1 | > 99.5 µM
76 | O=C(Nc1ccc2c(c1)CNC2)C1(c2ccc(Cl)cc2)CCCC1 | > 25 µM
77 | O=C(Nc1cc(Cl)cc(C(=O)Nc2ncc3n2CCNC3)c1)OCc1ccccc1 | > 99.5 µM
78 | NS(=O)(=O)c1nc(C(=O)N2CCc3c(CO)cccc32)n2ccccc12 | > 99.5 µM

Row | SMILES | IC50
79 | c1ccc(COc2ccc3c(CN4CCC(c5cscn5)CC4)c[nH]c3c2)cc1 | > 99.5 µM
80 | CCn1ccnc(N2CCC(c3c[nH]c4ccccc34)CC2)c1=O | > 99.5 µM
81 | Cc1ccc(Sc2ncccc2C(=O)Nc2cccc(CN)c2)cc1C | > 99.5 µM
82 | Cc1c(C(=O)Nc2ccc(CN)cc2)cc(C2CC2)n1C | > 99.5 µM
83 | COc1ccc(F)cc1-c1ccc(S(=O)(=O)Nc2ccc(Cl)cc2C(N)=O)cc1 | 73.2 µM
84 | c1ccc2c(CN3CCC(c4c[nH]c5cccnc45)CC3)n[nH]c2c1 | 42.9 µM
85 | Cc1cc(CN)cc(NC(=O)c2cc(Cl)cc3[nH]ncc23)c1 | 0.736 µM
86 | O=C(O)c1cc2cc(-c3cc(Cl)cn4ncnc34)ccc2[nH]1 | > 99.5 µM
87 | N#Cc1ccc(S(=O)(=O)Nc2ccc(Oc3ccccc3Cl)cc2)c(C(=O)O)c1 | > 99.5 µM
88 | O=C(O)c1cc(Cl)ccc1S(=O)(=O)NC1CCN(Cc2ccc(F)c(F)c2)CC1 | > 99.5 µM
89 | FC1(c2cccnc2)CN(Cc2c[nH]c3ccccc23)C1 | > 99.5 µM
90 | Cc1c(C(=O)Nc2cc(C(N)=O)c3ccccc3n2)cc(C2CC2)n1C | > 99.5 µM
91 | O=C(N[C@@H](C(=O)NCc1cn[nH]c1)c1ccc(OCc2ccccc2)cc1)OCc1ccccc1 | > 99.5 µM
92 | CN(C)Cc1nnc(NC(=O)[C@@H](NC(=O)OCc2ccccc2)c2ccc(OCc3ccccc3)cc2)s1 | > 99.5 µM
93 | Cc1c(C(=O)Nc2cc(C(=O)N3CCC[C@H]3C(N)=O)ccn2)cc(C2CC2)n1C | > 25 µM
94 | NCc1cccc(NC(=O)c2ccc(F)c(NC(=O)OCc3ccccc3)c2F)c1 | > 99.5 µM
95 | O=C(O)c1cc(Cl)ccc1S(=O)(=O)Nc1nn(Cc2ccccc2)cc1Cl | > 99.5 µM
96 | O=C(Nc1cc(Cl)cc(C(=O)NCC2(CO)CCNCC2)c1)OCc1ccccc1 | > 99.5 µM
97 | O=C(NCc1cccnc1)[C@H](Nc1ccc2c(c1)CNC2)c1cc(Cl)cc2[nH]ncc12 | 0.122 µM
98 | NCc1cccc(NC(=O)[C@@H](NC(=O)c2cccnc2)c2ccc(OCc3ccccc3)cc2)c1 | > 99.5 µM
99 | CC(=O)Nc1cccc(C(=O)Nc2ccc3c(c2)CNC3)c1 | 0.863 µM
100 | CCOCC(=O)N[C@H](C(=O)Nc1cccc(CN)c1)c1ccc(OCc2ccccc2)cc1 | > 99.5 µM
101 | C[C@H](CC(=O)O)N(C)C(=O)c1cc(Cl)cc(NC(=O)OCc2ccccc2)c1 | > 99.5 µM
102 | Cn1nnnc1-c1cccc(NC(=O)c2cc(Cl)cc(NC(=O)OCc3ccccc3)c2)c1 | > 99.5 µM
103 | CCn1ccnc(N2CC[C@H](c3ccn[nH]3)C2)c1=O | > 99.5 µM
104 | NC1(c2cccc(NC(=O)c3cc(Cl)cc(NC(=O)OCc4ccccc4)c3)c2)CC1 | > 99.5 µM
